Test results reported in the CheMixHub viscosity set.
Several values for one entry are separate records, joined by “and”; a condition that tells them apart may be missing. Equal entries are not always repeated.

Assay: xn = mol fraction of the nth substance listed

CCCCOCCO + O
Conditions | viscosity
293.15 K, 101 kPa, x1 = 0.00631 | 1.166 mPa·s
293.15 K, 101 kPa, x1 = 0.0131 | 1.391 mPa·s
293.15 K, 101 kPa, x1 = 0.01666 | 1.507 mPa·s
293.15 K, 101 kPa, x1 = 0.03452 | 2.102 mPa·s
294.15 K, 101 kPa, x1 = 0.00631 | 1.136 mPa·s
294.15 K, 101 kPa, x1 = 0.0131 | 1.352 mPa·s
295.15 K, 101 kPa, x1 = 0.00631 | 1.106 mPa·s
295.15 K, 101 kPa, x1 = 0.0131 | 1.315 mPa·s
295.15 K, 101 kPa, x1 = 0.01666 | 1.421 mPa·s
295.15 K, 101 kPa, x1 = 0.03452 | 1.979 mPa·s
296.15 K, 101 kPa, x1 = 0.00631 | 1.079 mPa·s
296.15 K, 101 kPa, x1 = 0.0131 | 1.279 mPa·s
297.15 K, 101 kPa, x1 = 0.00631 | 1.052 mPa·s
297.15 K, 101 kPa, x1 = 0.0131 | 1.245 mPa·s
297.15 K, 101 kPa, x1 = 0.01666 | 1.342 mPa·s
297.15 K, 101 kPa, x1 = 0.03452 | 1.868 mPa·s
298.15 K, 101 kPa, x1 = 0.00631 | 1.026 mPa·s
298.15 K, 101 kPa, x1 = 0.0131 | 1.212 mPa·s
299.15 K, 101 kPa, x1 = 0.00631 | 1.001 mPa·s
299.15 K, 101 kPa, x1 = 0.0131 | 1.18 mPa·s
299.15 K, 101 kPa, x1 = 0.01666 | 1.271 mPa·s
299.15 K, 101 kPa, x1 = 0.03452 | 1.766 mPa·s
300.15 K, 101 kPa, x1 = 0.00631 | 0.9782 mPa·s
300.15 K, 101 kPa, x1 = 0.0131 | 1.15 mPa·s
301.15 K, 101 kPa, x1 = 0.00631 | 0.9547 mPa·s
301.15 K, 101 kPa, x1 = 0.0131 | 1.121 mPa·s
301.15 K, 101 kPa, x1 = 0.01666 | 1.205 mPa·s
301.15 K, 101 kPa, x1 = 0.03452 | 1.675 mPa·s
302.15 K, 101 kPa, x1 = 0.00631 | 0.9328 mPa·s
302.15 K, 101 kPa, x1 = 0.0131 | 1.092 mPa·s
303.15 K, 101 kPa, x1 = 0.00631 | 0.9113 mPa·s
303.15 K, 101 kPa, x1 = 0.0131 | 1.066 mPa·s
303.15 K, 101 kPa, x1 = 0.01666 | 1.144 mPa·s
303.15 K, 101 kPa, x1 = 0.03452 | 1.592 mPa·s
304.15 K, 101 kPa, x1 = 0.00631 | 0.891 mPa·s
304.15 K, 101 kPa, x1 = 0.0131 | 1.04 mPa·s
305.15 K, 101 kPa, x1 = 0.00631 | 0.8711 mPa·s
305.15 K, 101 kPa, x1 = 0.0131 | 1.015 mPa·s
305.15 K, 101 kPa, x1 = 0.01666 | 1.089 mPa·s
305.15 K, 101 kPa, x1 = 0.03452 | 1.515 mPa·s
306.15 K, 101 kPa, x1 = 0.00631 | 0.8521 mPa·s
306.15 K, 101 kPa, x1 = 0.0131 | 0.9916 mPa·s
307.15 K, 101 kPa, x1 = 0.00631 | 0.8342 mPa·s
307.15 K, 101 kPa, x1 = 0.0131 | 0.9686 mPa·s
307.15 K, 101 kPa, x1 = 0.01666 | 1.038 mPa·s
307.15 K, 101 kPa, x1 = 0.03452 | 1.445 mPa·s
308.15 K, 101 kPa, x1 = 0.00631 | 0.8158 mPa·s
308.15 K, 101 kPa, x1 = 0.0131 | 0.9465 mPa·s
308.15 K, 101 kPa, x1 = 0.037 | 1.465 mPa·s and 1.465 mPa·s
308.15 K, 101.33 kPa, x2 = 0.3047 | 2.388 mPa·s
308.15 K, 101.33 kPa, x2 = 0.4017 | 2.477 mPa·s
308.15 K, 101.33 kPa, x2 = 0.4974 | 2.624 mPa·s
308.15 K, 101.33 kPa, x2 = 0.5973 | 2.835 mPa·s
308.15 K, 101.33 kPa, x2 = 0.697 | 2.955 mPa·s
308.15 K, 101.33 kPa, x2 = 0.8047 | 2.873 mPa·s
308.15 K, 101.33 kPa, x2 = 0.8972 | 2.245 mPa·s
308.15 K, 101.33 kPa, x2 = 0.9497 | 1.576 mPa·s
309.15 K, 101 kPa, x1 = 0.00631 | 0.799 mPa·s
309.15 K, 101 kPa, x1 = 0.0131 | 0.9251 mPa·s
309.15 K, 101 kPa, x1 = 0.01666 | 0.9913 mPa·s
309.15 K, 101 kPa, x1 = 0.03452 | 1.381 mPa·s
310.15 K, 101 kPa, x1 = 0.00631 | 0.7823 mPa·s
310.15 K, 101 kPa, x1 = 0.0131 | 0.9045 mPa·s
311.15 K, 101 kPa, x1 = 0.00631 | 0.7663 mPa·s
311.15 K, 101 kPa, x1 = 0.0131 | 0.8847 mPa·s
311.15 K, 101 kPa, x1 = 0.01666 | 0.9476 mPa·s
311.15 K, 101 kPa, x1 = 0.03452 | 1.322 mPa·s
312.15 K, 101 kPa, x1 = 0.00631 | 0.7507 mPa·s
312.15 K, 101 kPa, x1 = 0.0131 | 0.8657 mPa·s
313.15 K, 101 kPa, x1 = 0.00631 | 0.7357 mPa·s
313.15 K, 101 kPa, x1 = 0.0131 | 0.8474 mPa·s
313.15 K, 101 kPa, x1 = 0.01666 | 0.907 mPa·s
313.15 K, 101 kPa, x1 = 0.03452 | 1.268 mPa·s
313.15 K, 101 kPa, x1 = 0.6 | 2.465 mPa·s
314.15 K, 101 kPa, x1 = 0.00631 | 0.7211 mPa·s
314.15 K, 101 kPa, x1 = 0.0131 | 0.8294 mPa·s
315.15 K, 101 kPa, x1 = 0.00631 | 0.7073 mPa·s
315.15 K, 101 kPa, x1 = 0.0131 | 0.8121 mPa·s
315.15 K, 101 kPa, x1 = 0.01666 | 0.8696 mPa·s
315.15 K, 101 kPa, x1 = 0.03452 | 1.218 mPa·s
316.15 K, 101 kPa, x1 = 0.00631 | 0.6935 mPa·s
316.15 K, 101 kPa, x1 = 0.0131 | 0.7957 mPa·s
317.15 K, 101 kPa, x1 = 0.00631 | 0.6799 mPa·s
317.15 K, 101 kPa, x1 = 0.0131 | 0.7795 mPa·s
317.15 K, 101 kPa, x1 = 0.01666 | 0.8346 mPa·s
317.15 K, 101 kPa, x1 = 0.03452 | 1.173 mPa·s
318.15 K, 101 kPa, x1 = 0.00631 | 0.6676 mPa·s
318.15 K, 101 kPa, x1 = 0.0131 | 0.764 mPa·s
318.15 K, 101 kPa, x1 = 0.03452 | 1.151 mPa·s
319.15 K, 101 kPa, x1 = 0.00631 | 0.6552 mPa·s
319.15 K, 101 kPa, x1 = 0.0131 | 0.7487 mPa·s
319.15 K, 101 kPa, x1 = 0.01666 | 0.8021 mPa·s
319.15 K, 101 kPa, x1 = 0.03452 | 1.131 mPa·s
320.15 K, 101 kPa, x1 = 0.00631 | 0.6431 mPa·s
320.15 K, 101 kPa, x1 = 0.0131 | 0.7347 mPa·s
320.15 K, 101 kPa, x1 = 0.03452 | 1.113 mPa·s
320.65 K, 101 kPa, x1 = 0.03452 | 1.104 mPa·s
321.15 K, 101 kPa, x1 = 0.00631 | 0.6313 mPa·s
321.15 K, 101 kPa, x1 = 0.0131 | 0.7202 mPa·s
321.15 K, 101 kPa, x1 = 0.01666 | 0.7716 mPa·s
321.15 K, 101 kPa, x1 = 0.03452 | 1.096 mPa·s
321.65 K, 101 kPa, x1 = 0.03452 | 1.088 mPa·s
322.15 K, 101 kPa, x1 = 0.00631 | 0.6205 mPa·s
322.15 K, 101 kPa, x1 = 0.0131 | 0.7065 mPa·s
323.15 K, 101 kPa, x1 = 0.00631 | 0.6094 mPa·s
323.15 K, 101 kPa, x1 = 0.0131 | 0.6934 mPa·s
323.15 K, 101 kPa, x1 = 0.01666 | 0.743 mPa·s
